Here are results for four compounds from patent US7026469B2, “Compositions and methods of double-targeting virus infections and cancer cells” (Wake Forest University School of Medicine, priority 2000, dated 2006).

One series has as its system Friend leukemia virus. The note with it: cited from earlier work; for suppression against RT activity: INK-11 compared with AZT alone.
The test system of series [1] is AZT-resistant clinical isolates of HIV-1. In words: microbe, parasite or virus in culture. The note with it: for pEC50: mean of 2 to 4 independent tests. The series is classed as cell-based. The procedure: (§1) The inhibitory effects of PC lipids, non-PC lipid-AZT conjugates, and double-targeting PC lipid-AZT conjugate compounds of the invention on replication of HIV-1 virus in cells was examined using the plaque assay procedure described in Kucera et al. (1990, AIDS Research and Human Retroviruses, 6:491). CEM-SS cells were seeded at 50,000 cells per milliliter in RPMI growth medium as a monolayer in 96-well dishes, inoculated with 50 to 100 plaque forming units of HIV-1 and overlaid with serial dilutions of either PC lipid, non-PC lipid-AZT conjugate, or PC-lipid-AZT conjugate in RPMI-1640 growth medium supplemented with 10% fetal bovine serum. The structures of the tested compounds are described in Table 1. AZT and PC lipids were used as positive controls. […] The cytotoxicity of PC lipids, non-PC lipid-AZT conjugates and double targeting PC lipid-AZT conjugates was assessed using the procedure described in Kucera et al. (1990, AIDS Res. And Human Retrovir., 6:496, and 1998, Antiviral Chemistry and Chemotherapy, 9:160). [drawing 16]
Evaluation of the clinical isolates to the compounds was performed using the plaque assay procedure described herein in Example 1. The matched pairs of clinical isolates were obtained through the AIDS Research and Reference Reagent Program, NIH, Bethesda, Md.

The nature of series [2]: Cytotoxicity (TC50) of the compounds tested for anti-HIV-1 activity. The series is classed as cell-based, human. The settings on record: human, CEM-SS cells. The protocol:
as §1

The subject of another series is HIV-1. The series can be described thus: HIV-1 syncytial plaque assay in CEM-SS cells. It is filed as cell-based. The note with it: for pEC50: read-out: Anti-HIV-1 Activity (EC50). The protocol:
as §1
In the plaque assay, HIV-1 syncytial plaques are seen as large, multicellular foci (10 to 25 nuclei/syncytium) that appear either brown and granular or clear. Because the number of HIV-1 syncytial plaques was correlated with reverse transcriptase (RT) and p24 core antigen activity in the HIV-1 infected cell overlay fluids, the syncytial plaque assay could be used to quantify the amount of infectious virus. Reverse transcriptase activity was assayed according to the procedure described by Poeisz et al. (1980, Proc. Natl. Acad. Sci. U.S.A. 77:7415). The activity of p24 core antigen induced by HIV-1 infection of CEM-SS cells was measured spectrophotometrically using the commercial Coulter enzyme immunoassay (EIA).

Series [3] is described as follows: Oral administration of phospholipid-AZT conjugate in rodents (distribution, half-life). More on the design: species or system rodents (mice). The settings on record: mouse, in vivo.
Series [4] relates to HIV-1 persistently infected H9IIIB cells. In words: Induction of defective HIV-1 in persistently infected H9IIIB cells (RT activity after infecting fresh CEM-SS cells). The series is classed as cell-based. The settings on record: RT activity in CEM-SS overlay medium after 7 or 9 days; H9IIIB cells treated with 1.0 μM compound for 14 or 11 days. The procedure: HIV-1 persistently infected H9IIIB cells were washed twice to remove extracellular HIV-1, resuspended in fresh growth medium with or without 1.0 μM of compound for a total of 14 days. During the treatment period, the cells were subcultured 1:3 three times a week. In addition, on days 3, 7 and 11, the cells were pelleted to remove extracellular HIV-1 before subculture in fresh growth medium with or without the compound. After 14 or 11 days of treatment, the virus was pelleted (100,000×g, 1 hr, 4 C.) from the overlay medium to remove free compound, resuspended in fresh medium without compound and assayed for RT activity. The virus suspension was normalized to 500,000 RT DPM and used to infect fresh CEM-SS cells. The infected CEM-SS cells were incubated for a total of 7 or 9 days, and the overlay medium was harvested and assayed for induction of RT activity. The % inhibition of RT activity was used as a measure of defective virus formation during the treatment period.

Series [5] in a line: Cytotoxicity in Vero cell monolayers (cell morphology). It is filed as cell-based, monkey. The settings on record: monkey, Vero cell monolayers (monkey kidney cells), 48 hours at 37° C., lowest concentration changing morphology in at least 25% of the cells, read-out: Cytotoxicity (TC50). The procedure:
To measure cytotoxicity of the compounds, the cell monolayers (described above) were treated with a serial concentration of test compound for 48 hours at 37° C. and visually examined after crystal violet staining by light microscopy for changes in cell morphology (cell rounding, shrinking, detachment) compared to an untreated control culture.

The subject of series [6] is herpes simplex virus type 2. In words: Herpes simplex virus type 2 plaque inhibition in Vero cells. The series is classed as cell-based. The settings on record: acyclovir in replicate tests; read-out: EC50 against herpes simplex virus type 2. The procedure:
Proof-of-concept of the antiviral activity of the double-targeting PC lipid-AZT conjugate compounds of the invention with respect to herpes simplex virus type 2 was evaluated and compared with that of PC lipid alone and with acyclovir (positive controls). Serial dilutions of PC lipid, PC lipid-AZT conjugate compound, or acyclovir were evaluated for inhibition of the formation of herpes simplex virus type 2 plaques in Vero cells and EC50 values were calculated from the results obtained. Briefly, the tests for anti-herpes simplex virus (HSV) activity and cytotoxicity of the compounds were performed by seeding 8×10^4 monkey kidney cells (Vero) per ml of D-MEM with 10% fetal bovine serum (FBS) in each well of a 12-well dish. The cultures were incubated at 37° C. to form a complete monolayer. To measure anti-HSV activity and effective concentration50 (EC50) each cell monolayer was infected with HSV diluted in PBS-A containing about 100 plaque forming units (PFU) per 0.1 ml. After virus attachment (1 hr., 37° C.) the infected monolayers were overlaid with E-MEM containing 2% FBS and 0.5% methyl cellulose with or without added serial concentrations of test compound. […] The EC50 values were calculated using a computer generated program.

In the next series the test system is CEM-SS cells. In words: Cytotoxicity (TC50) of the compounds tested for anti-HIV-1 activity. It is filed as cell-based, human. The settings on record: read-out: Cytotoxicity (TC50). The procedure:
as §1

The subject of the next series is human lymphocytes. In words: Metabolism of conjugate in human lymphocytes in tissue culture. It is filed as in vitro ADME. The procedure:
In another set of experiments the metabolism of the compound BM21-1290 using human lymphocytes in tissue culture was assessed. […] The predominant AZT species was AZT-MP with lesser amounts of AZT-DP, AZT-TP and AZT. […] AZT-MP can be activated to AZT-TP the inhibitor of HIV-1 induced reverse transcriptase.

pEC50: −log10 of the molar value. “And” between values parts separate entries of the source, which are not always exact repeats. Identical values can stand only once. Like-named read-outs stand apart in the source and are kept apart here. Where only a bound is given, the exact number is not on record here.

For the compound `Cc1cn([C@H]2C[C@H](N=[N+]=[N-])[C@@H](CO)O2)c(=O)[nH]c1=O` [AZT, 3′-azido-3′-deoxythymidine, reference compound], in the series on Friend leukemia virus, the “suppression against RT activity” value is 98%. In addition, the pEC50 in series [1] (Human immunodeficiency virus 1, read-out: EC50 Pre-AZT G-762, pre-AZT isolate, patient code G-762) is 9.00; in series [1] (Human immunodeficiency virus 1, read-out: EC50 Pre-AZT H112-2, pre-AZT isolate, patient code H112-2) it was 8.70; in the series with HIV-1 (Human immunodeficiency virus 1, CEM-SS, 120 h) it was 8.05. For the same compound, the “Fold-Increase (G-762 to G-691)” value in [1] (post-AZT G-691 versus pre-AZT G-762) is recorded as 165. The “fold increase in AZT-resistance among HIV-1 clinical isolates” value in [1] (text summary over both isolate pairs) was 680- to 1,100 fold. Further, in [2], the CC50 amounted to 3.7 µM. Moreover, the “Differential Selectivity” value in the series on HIV-1 (DS = ratio of TC50 for cytotoxicity to EC50 for anti-HIV activity) is reported as 411. In series [3] (in rodents, units given within the value, read-out: half-life of AZT alone), the half-life was in the range of 0.5 to 1 h. For the same compound, the DPM-Bkg in [4] is 5416 DPM and 6573 DPM.

Consider `Nc1nc2c(ncn2COCCO)c(=O)[nH]1` [Acyclovir, reference compound], for which, in series [5], the CC50 at 48 h was more than 20 µM. Besides, the pEC50 in [6] was 4.90 and 4.84 and 5.18.

For `CCCCCCCCCCCCSCC(COP(=O)(O)OCC1OC(n2cc(C)c(=O)[nH]c2=O)CC1N=[N+]=[N-])OCCCCCCCCCC` (stereo not shown) [BM21-1290], the CC50 in the series with CEM-SS cells came out at 38.5 µM. The pEC50 with HIV-1 (plaques counted after five days at 37° C., CEM-SS cells) is 7.70. In addition, the intracellular metabolism result in the series on human lymphocytes is “metabolized to form an alkyl-lipid plus a phosphorylated species of AZT”. Besides, in series [3], the “free AZT in the plasma” value was “little or no detectable free AZT in the plasma”; the half-life came out at 48 h; the tissue uptake entry was “preferentially taken up into lymphoid tissues (lymphoma, spleen and thymus)”. Also, in series [3] (po), the “concentration in the brain versus plasma” value is given as “equivalent to the concentration of BM21-1290 in the plasma” and the oral bioavailability entry is “orally bioavailable”.

On to `CCCCCCCCCCOC(CNC(=O)CCCCCCCCC)COP(=O)([O-])OCC[N+](C)(C)C` (stereo not shown) [INK-11, 1-decanamido-2-decyloxypropyl-3-phosphocholine], for which the “inhibition of FLV-induced pathogenesis (splenomegaly)” value with Friend leukemia virus (50 milligrams per kilogram of body weight per day for 21 days, infected mice) was 42%. Also, the “suppression against RT activity” value in the series with Friend leukemia virus is 42%.

A word on the pEC50: it is −log10 of the EC50, conventionally taken in molar units. The term half-life denotes the time in which the quantity being followed falls by half.
